Test results taken from PubChem BioAssay (NCI).
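Protocol summary: plate cells (96-well), add compound at 5 concentrations, incubate 48 h, interpolate endpoints linearly. Abbreviation: GI50, concentration required for 50% inhibition of growth. TGI denotes the concentration required for complete inhibition of growth.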

How the values were obtained:
Assay in all cases: growth of human tumour cells (NCI), 48 h
786-0 renal = test system: 786-0 renal
A498 renal = test system: A498 renal
A549 NSCLC = test system: A549 NSCLC
ACHN renal = test system: ACHN renal
BT-549 breast = test system: BT-549 breast
CAKI-1 renal = test system: CAKI-1 renal
CCRF-CEM leukemia = test system: CCRF-CEM leukemia
COLO 205 colon = test system: COLO 205 colon
DU-145 prostate = test system: DU-145 prostate
EKVX NSCLC = test system: EKVX NSCLC
HCC-2998 colon = test system: HCC-2998 colon
HCT-116 colon = test system: HCT-116 colon
HCT-15 colon = test system: HCT-15 colon
HL-60(TB) leukemia = test system: HL-60(TB) leukemia
HOP-62 NSCLC = test system: HOP-62 NSCLC
HOP-92 NSCLC = test system: HOP-92 NSCLC
HS 578T breast = test system: HS 578T breast
HT29 colon = test system: HT29 colon
IGROV1 ovarian = test system: IGROV1 ovarian
K-562 leukemia = test system: K-562 leukemia
KM12 colon = test system: KM12 colon
LOX IMVI melanoma = test system: LOX IMVI melanoma
M14 melanoma = test system: M14 melanoma
MALME-3M melanoma = test system: MALME-3M melanoma
MCF7 breast = test system: MCF7 breast
MDA-MB-231 breast = test system: MDA-MB-231 breast
MDA-MB-435 = test system: MDA-MB-435
MDA-MB-468 breast = test system: MDA-MB-468 breast
MOLT-4 leukemia = test system: MOLT-4 leukemia
NCI-H226 lung = test system: NCI-H226 lung
NCI-H23 lung = test system: NCI-H23 lung
NCI-H460 lung = test system: NCI-H460 lung
NCI-H522 lung = test system: NCI-H522 lung
NCI/ADR-RES ovarian = test system: NCI/ADR-RES ovarian
OVCAR-3 ovarian = test system: OVCAR-3 ovarian
OVCAR-4 ovarian = test system: OVCAR-4 ovarian
OVCAR-5 ovarian = test system: OVCAR-5 ovarian
OVCAR-8 ovarian = test system: OVCAR-8 ovarian
PC-3 prostate = test system: PC-3 prostate
RPMI-8226 leukemia = test system: RPMI-8226 leukemia
RXF 393 renal = test system: RXF 393 renal
SF-268 CNS = test system: SF-268 CNS
SF-539 CNS = test system: SF-539 CNS
SK-MEL-2 melanoma = test system: SK-MEL-2 melanoma
SK-MEL-28 melanoma = test system: SK-MEL-28 melanoma
SK-MEL-5 melanoma = test system: SK-MEL-5 melanoma
SK-OV-3 ovarian = test system: SK-OV-3 ovarian
SN12C renal = test system: SN12C renal
SNB-19 CNS = test system: SNB-19 CNS
SNB-75 CNS = test system: SNB-75 CNS
SR leukemia = test system: SR leukemia
SW-620 colon = test system: SW-620 colon
T-47D breast = test system: T-47D breast
TK-10 renal = test system: TK-10 renal
U251 CNS = test system: U251 CNS
UACC-257 melanoma = test system: UACC-257 melanoma
UACC-62 melanoma = test system: UACC-62 melanoma
UO-31 renal = test system: UO-31 renal

`C/C(=N/O)c1ccc(NC(=O)CSc2nnc(-c3ccc(-c4nc5ccc(Cl)cc5[nH]4)cc3)o2)cc1` was tested, and the GI50 (786-0 renal) was 1.91 µM, the TGI (786-0 renal) was 3.53 µM and the GI50 (A498 renal) was 1.94 µM. It also gave a TGI (A498 renal) of 4.58 µM, a GI50 (A549 NSCLC) of 1.98 µM and a TGI (A549 NSCLC) of 4.2 µM. The GI50 (ACHN renal) was 2.7 µM, the TGI (ACHN renal) was 8.65 µM and the GI50 (BT-549 breast) was 2.39 µM. The TGI (BT-549 breast) was 4.35 µM, the GI50 (CAKI-1 renal) was 1.85 µM and the TGI (CAKI-1 renal) was 3.73 µM. The GI50 (CCRF-CEM leukemia) was 2.33 µM, the TGI (CCRF-CEM leukemia) was 6.75 µM and the GI50 (COLO 205 colon) was 3.14 µM. It also gave a TGI (COLO 205 colon) of 12.2 µM, a GI50 (DU-145 prostate) of 2.09 µM and a TGI (DU-145 prostate) of 4.73 µM. It also gave a GI50 (EKVX NSCLC) of 3.05 µM, a TGI (EKVX NSCLC) of 13.2 µM and a GI50 (HCC-2998 colon) of 11.2 µM. For the same compound, the TGI (HCC-2998 colon) was > 100 µM, the GI50 (HCT-116 colon) was 2.29 µM and the TGI (HCT-116 colon) was 5.73 µM. For the same compound, the GI50 (HCT-15 colon) was 34.5 µM, the TGI (HCT-15 colon) was > 100 µM and the GI50 (HL-60(TB) leukemia) was 3.63 µM. For the same compound, the TGI (HL-60(TB) leukemia) was 17.4 µM, the GI50 (HOP-62 NSCLC) was 2.01 µM and the TGI (HOP-62 NSCLC) was 3.95 µM. It also gave a GI50 (HOP-92 NSCLC) of 1.83 µM, a TGI (HOP-92 NSCLC) of 3.86 µM and a GI50 (HS 578T breast) of 2.21 µM. The TGI (HS 578T breast) was 5.19 µM, the GI50 (HT29 colon) was 2.44 µM and the TGI (HT29 colon) was 6 µM. The GI50 (IGROV1 ovarian) was 3.35 µM, the TGI (IGROV1 ovarian) was 12 µM and the GI50 (K-562 leukemia) was 2.63 µM. It also gave a TGI (K-562 leukemia) of 10.6 µM, a GI50 (KM12 colon) of 2.66 µM and a TGI (KM12 colon) of 8.48 µM. The GI50 (LOX IMVI melanoma) was 1.57 µM, the TGI (LOX IMVI melanoma) was 2.92 µM and the GI50 (M14 melanoma) was 1.76 µM. The TGI (M14 melanoma) was 3.54 µM, the GI50 (MALME-3M melanoma) was 1.58 µM and the TGI (MALME-3M melanoma) was 2.95 µM. It also gave a GI50 (MCF7 breast) of 2.2 µM, a TGI (MCF7 breast) of 5.93 µM and a GI50 (MDA-MB-231 breast) of 1.83 µM. It also gave a TGI (MDA-MB-231 breast) of 3.52 µM, a GI50 (MDA-MB-435) of 1.65 µM and a TGI (MDA-MB-435) of 3.27 µM. For the same compound, the GI50 (MDA-MB-468 breast) was 1.81 µM, the TGI (MDA-MB-468 breast) was 4.09 µM and the GI50 (MOLT-4 leukemia) was 2.62 µM. It also gave a TGI (MOLT-4 leukemia) of 12.4 µM, a GI50 (NCI-H226 lung) of 1.74 µM and a TGI (NCI-H226 lung) of 3.68 µM. The GI50 (NCI-H23 lung) was 1.9 µM, the TGI (NCI-H23 lung) was 4.09 µM and the GI50 (NCI-H460 lung) was 1.61 µM. It also gave a TGI (NCI-H460 lung) of 3.25 µM, a GI50 (NCI-H522 lung) of 1.57 µM and a TGI (NCI-H522 lung) of 3.42 µM. The GI50 (NCI/ADR-RES ovarian) was 84.7 µM, the TGI (NCI/ADR-RES ovarian) was > 100 µM and the GI50 (OVCAR-3 ovarian) was 1.74 µM. For the same compound, the TGI (OVCAR-3 ovarian) was 3.73 µM, the GI50 (OVCAR-4 ovarian) was 2.04 µM and the TGI (OVCAR-4 ovarian) was 4.58 µM. For the same compound, the GI50 (OVCAR-5 ovarian) was 3.33 µM, the TGI (OVCAR-5 ovarian) was 13.8 µM and the GI50 (OVCAR-8 ovarian) was 2.94 µM. It also gave a TGI (OVCAR-8 ovarian) of 9.98 µM, a GI50 (PC-3 prostate) of 2.21 µM and a TGI (PC-3 prostate) of 5.08 µM. The GI50 (RPMI-8226 leukemia) was 3.16 µM, the TGI (RPMI-8226 leukemia) was 15 µM and the GI50 (RXF 393 renal) was 1.75 µM. For the same compound, the TGI (RXF 393 renal) was 3.31 µM, the GI50 (SF-268 CNS) was 1.83 µM and the TGI (SF-268 CNS) was 3.78 µM. The GI50 (SF-539 CNS) was 1.71 µM, the TGI (SF-539 CNS) was 3.08 µM and the GI50 (SK-MEL-2 melanoma) was 1.78 µM. It also gave a TGI (SK-MEL-2 melanoma) of 3.68 µM, a GI50 (SK-MEL-28 melanoma) of 1.73 µM and a TGI (SK-MEL-28 melanoma) of 3.18 µM. For the same compound, the GI50 (SK-MEL-5 melanoma) was 1.75 µM, the TGI (SK-MEL-5 melanoma) was 3.33 µM and the GI50 (SK-OV-3 ovarian) was 2.38 µM. The TGI (SK-OV-3 ovarian) was 5.33 µM, the GI50 (SN12C renal) was 1.87 µM and the TGI (SN12C renal) was 4.06 µM. It also gave a GI50 (SNB-19 CNS) of 1.9 µM, a TGI (SNB-19 CNS) of 3.62 µM and a GI50 (SNB-75 CNS) of 1.57 µM. For the same compound, the TGI (SNB-75 CNS) was 3.41 µM, the GI50 (SR leukemia) was 2.84 µM and the TGI (SR leukemia) was 15.5 µM. For the same compound, the GI50 (SW-620 colon) was 2.84 µM, the TGI (SW-620 colon) was 8.54 µM and the GI50 (T-47D breast) was 2.05 µM. The TGI (T-47D breast) was 4.5 µM, the GI50 (TK-10 renal) was 5.78 µM and the TGI (TK-10 renal) was 17.4 µM. For the same compound, the GI50 (U251 CNS) was 1.83 µM, the TGI (U251 CNS) was 3.4 µM and the GI50 (UACC-257 melanoma) was 2.06 µM. It also gave a TGI (UACC-257 melanoma) of 4.5 µM, a GI50 (UACC-62 melanoma) of 1.78 µM and a TGI (UACC-62 melanoma) of 3.36 µM. The GI50 (UO-31 renal) was 37.2 µM and the TGI (UO-31 renal) was > 100 µM.
